Like-named read-outs stand apart in the source and are kept apart here.
Experiments:
MHCC97H cells [1] = experiment: IC50 values by cell proliferation assay (WST-1); assay type: cell-based, human
Protocol: (§1) MHCC97H and MHCC97L (highly metastatic hepatocellular carcinoma cell line, derived from humans)
Cells (MHCC97H, MHCC97L, and HepG2.2.15) were cultured for 24 hours in 2% FBS and then were trypsinized, resuspended in 2% FBS and seeded in a rat collagen coated 96-well plate at a density of 10,000 cells/100 μl/well, a day before the experiment and cultured at 37° C. in 5% CO2. The cells were treated the next day with milciclib, sorafenib, regorafenib, sunitinib, and lenvatinib, individually or in combination in DMEM/F12+2% FBS+for 72 hours prior to the addition of WST-1 reagent. About 100 μL media was added to control well. […] To determine cell proliferation by the colorimetric test, 10 μL of WST-1 reagent (Sigma Aldrich, St Louis, Mo.) was added in 100 μL cell culture media and incubated for 2 hours in 5% CO2 at 37° C. At the end of incubation period, the plate was placed on a plate shaker for 1 minute and was monitored using a spectrophotometer at an optical density of 450 nm with a reference wavelength of 600 nm using Tecan F200 and iControl software. IC50 values were determined using GraphPad Prism (GraphPad Software, La Jolla, Calif.). Each experiment was performed in duplicate and repeated 2 times.

MHCC97L cells [2] = experiment: IC50 values by cell proliferation assay (WST-1); assay type: cell-based; conditions: Homo sapiens, individual inhibitor, 72 hours
Description: (§2) See Shailubhai, K et al. “Atiprimod is an inhibitor of cancer cell proliferation and angiogenesis.” J Exp Ther Oncol. 2004; 4: 267-279; and Choudhari et al. “Deactivation of Akt and STAT3 signaling promotes apoptosis, inhibits proliferation, and enhances the sensitivity of hepatocellular carcinoma cells to an anticancer agent, atiprimod” Molecular Cancer Therapeutics. 2007; 6: 112-121. References are incorporated herein in their entireties.
as §1
(§3) Cells (MHCC97H, MHCC97L, and HepG2.2.15) were cultured for 24 hours in 2% FBS and then were trypsinized, resuspended in 2% FBS and seeded in a rat collagen coated 96-well plate at a density of 10,000 cells/100 μl/well, a day before the experiment and cultured at 37° C. in 5% CO2. The cells were treated the next day with milciclib, sorafenib, regorafenib, sunitinib, and lenvatinib, individually or in combination in DMEM/F12+2% FBS+for 72 hours prior to the addition of WST-1 reagent. About 100 μL media was added to control well. After cells had been cultured for 72 hours with different drug concentrations, cells were washed 3 times with sterile 1× Phosphate buffered saline (PBS). To determine cell proliferation by the colorimetric test, 10 μL of WST-1 reagent (Sigma Aldrich, St Louis, Mo.) was added in 100 μL cell culture media and incubated for 2 hours in 5% CO2 at 37° C. At the end of incubation period, the plate was placed on a plate shaker for 1 minute and was monitored using a spectrophotometer at an optical density of 450 nm with a reference wavelength of 600 nm using Tecan F200 and iControl software. IC50 values were determined using GraphPad Prism (GraphPad Software, La Jolla, Calif.). Each experiment was performed in duplicate and repeated 2 times.

HepG2.2.15 cells = experiment: IC50 values by cell proliferation assay (WST-1); assay type: cell-based; conditions: Homo sapiens, read-out: HepG2.2.15 IC50
Description: as §2
HepG2.2.15 cells are derived from the human hepatoblastoma cell line HepG2.
as §3

MHCC97H cells [3] = experiment: EMT transwell invasion assay; assay type: cell-based, human; conditions: in combination with milciclib, vs individual treatment, P<0.005
Protocol: (§4) EMT (Epithelial to Mesenchymal Transition) induction employing kit from R&D systems (Cat # CCM017)
(§5) For transwell invasion assay HCC cells were seeded in the top chamber in 6 well transwell plates (Sigma-Aldrich, St. Louis, Mo.) at a density of 100,000 cells/500 μL/well in standard culture media containing 100× StemXVivo® EMT Inducing Media Supplement (R&D systems, Minneapolis, Minn.) and was incubated overnight at 37° C. in humidified CO2 incubator. Next day, EMT inducing media with or without the test articles was added and incubation was continued for 10 days with media changes every 3 days. On the 10th day, the number of cells migrated to the lower chamber was determined using Bio-Rad (Hercules, Calif.) automatic cell counter. Values obtained were expressed as a percentage of invasion and the cell counts of control cells were considered 100%.
(§6) The invasive potential of cancer cells is dependent on losing epithelial characteristics and acquiring a migratory mesenchymal property referred to as Epithelial to Mesenchymal Transition (EMT).

MHCC97L cells [4] = experiment: EMT transwell invasion assay; assay type: cell-based, human; conditions: in combination with milciclib, vs individual treatment, P<0.005
Protocol: as §4, §5, §6

[5] = tested on: MHCC97H human liver cells; experiment: Orthotopic tumor induction in athymic nude mice; assay type: in vivo; conditions: oral, once daily day 12 to 47; milciclib 30 mg/kg/day, sorafenib 20 mg/kg/day; vs vehicle
Protocol: Mouse experiments were performed in accordance with the guidelines approved by the Institutional Animal Care and use committee of Washington Biotechnology Inc (Baltimore, Md.) where the studies were conducted. (FIG. 66) Test agents were dissolved in chremophor/ethanol (1:1) to make a 5× stock solution and diluted in water when used. MHCC97H human liver cells (5×106) in PBS were mixed with 20% Matrigel and then inoculated orthotopically into the right flank of female Balb/c nude mice. Seven days after cell inoculation, the mice were randomly allocated to either the treatment group (n=12) or the control group (n=12) based on the levels of AFP. The daily animal inspection was conducted for general appearance and tumor growth. Milciclib (30 mg/Kg), sorafenib (20 mg/Kg), milciclib+sorafenib or the corresponding vehicle was given orally to individual mice once daily from day 12 until day 47. After completion of the treatment at day 48, animals were euthanized and blood, liver tissues and tumor were collected for gene expression and mechanistic assays. Liver tumors developed 100% of animals challenged with orthotopic MHCC97H injection.

alpha-fetoprotein (AFP) = experiment: Serum AFP in orthotopic HCC mouse model; assay type: in vivo, mice; conditions: milciclib 30 mg/kg, sorafenib 20 mg/kg, oral, vs vehicle
Protocol: MHCC97H cells were seeded at a density of 500,000 cells/2 mL/well on a 6 well culture plate and incubated overnight at 37° C. in a humidified CO2 incubator. Cells were then treated with 1.3 μM milciclib or vehicle in DMEM/F12+2% FBS for 72 hours. Subsequently, cells were lysed in RIPA buffer, the supernatant was collected and used to perform ELISA assay as per the manufacturer's instructions. In orthotopic HCC mouse model, levels of serum marker alpha-fetoprotein (AFP) were determined on day 0, 6, 12, 18, 24, 30, 36, 42 and 48 using High Range AFP kit as per manufacturer's instructions.
Mouse experiments were performed in accordance with the guidelines approved by the Institutional Animal Care and use committee of Washington Biotechnology Inc (Baltimore, Md.) where the studies were conducted. (FIG. 66) Test agents were dissolved in chremophor/ethanol (1:1) to make a 5× stock solution and diluted in water when used. MHCC97H human liver cells (5×106) in PBS were mixed with 20% Matrigel and then inoculated orthotopically into the right flank of female Balb/c nude mice. Seven days after cell inoculation, the mice were randomly allocated to either the treatment group (n=12) or the control group (n=12) based on the levels of AFP. The daily animal inspection was conducted for general appearance and tumor growth. […]

miR-221 and miR-222 = experiment: miRNA isolation and expression analysis of tumor tissues; assay type: in vivo; conditions: tumor tissues from orally treated mice, vs vehicle
Protocol: miRNA from athymic nude mice following treatment with vehicle, milciclib, sorafenib, or milciclib+sorafenib was isolated from Total RNA using the TaqMan Advanced miRNA cDNA Synthesis Kit (Thermo Fisher Scientific, Rockford, Ill.) according to the manufacturer's instructions. miRNA-221 and miR-222 quantifications were performed in duplicates using TaqMan Advanced miRNA Assay (Thermo Fisher Scientific, Rockford, Ill.) with a sample dilution of 1:10. The PCR mixture was incubated at 95° C. for 20 seconds, followed by 40 cycles of 95° C. for 3 seconds and 60° C. for 30 seconds. Results were normalized to hsa-miR-192-5p as reference miRNA and the relative gene expression calculated as 2−ΔCT was expressed as fold increase over control samples.
Tumor tissues from mice treated with vehicle, sorafenib, milciclib, milciclib+sorafenib and normal liver tissues from naïve untreated mice were collected and levels of miR-221 and miR-222 were determined. The levels of both of miR-221 and miR-222 were elevated in tumors from vehicle treated mice.

[6] = Homo sapiens, MHCC97H, individual inhibitor, 72 hours, WST-1, read-out: MHCC97H IC50
[7] = Homo sapiens, MHCC97H cells, in combination with fixed 1.3 μM milciclib, read-out: IC50 (μM) KINASE INHIBITORS + 1.3 μM MILCICLIB
[8] = Homo sapiens, MHCC97H cells, inhibitor alone (synergy studies), read-out: IC50 (μM) OF KINASE INHIBITORS
[9] = MHCC97H cells, in combination with fixed 1.3 μM milciclib, read-out: IC50 (μM) KINASE INHIBITORS + 1.3 μM MILCICLIB
[10] = HepG2.2.15, individual inhibitor, 72 hours, WST-1
[11] = Homo sapiens, MHCC97H, 72 h, MHCC97H cells, inhibitor alone (synergy studies), read-out: IC50 (μM) OF KINASE INHIBITORS

Row | SMILES | IC50 (MHCC97H cells [1]; [6]) | IC50 (MHCC97H cells [1]; [7]) | IC50 (MHCC97H cells [1]; [8]) | IC50 (MHCC97L cells [2]) | IC50 (HepG2.2.15 cells; HepG2.2.15, 72 h) | invasion potential (MHCC97H cells [3]) | invasion potential (MHCC97L cells [4]) | IC50 (MHCC97H cells [1]; Homo sapiens, 72 h, MHCC97H cells, inhibitor alone (synergy studies), read-out: IC50 (μM) OF KINASE INHIBITORS) | IC50 (MHCC97H cells [1]; [9]) | IC50 (HepG2.2.15 cells; [10]) | IC50 (MHCC97H cells [1]; [11]) | IC50 (MHCC97H cells [1]; Homo sapiens, MHCC97H, MHCC97H cells, in combination with fixed 1.3 μM milciclib, read-out: IC50 (μM) KINASE INHIBITORS + 1.3 μM MILCICLIB) | IC50 (MHCC97H cells [1]; Homo sapiens, MHCC97H, MHCC97H cells, inhibitor alone (synergy studies), read-out: IC50 (μM) OF KINASE INHIBITORS) | reducing tumor growth [5] | serum AFP levels (alpha-fetoprotein (AFP)) | expression of miR-221 and miR-222 (miR-221 and miR-222) | IC50 (MHCC97H cells [1]; Homo sapiens, MHCC97H, 72 h, individual inhibitor, 72 hours, WST-1, read-out: MHCC97H IC50)
1 | COc1cc2nccc(Oc3ccc(NC(=O)NC4CC4)c(Cl)c3)c2cc1C(N)=O [LENVATINIB, lenvatinib] | 0.28 µM | 0.12 µM | 0.28 µM | 0.14 µM | 0.24 µM | reduced the invasion potential to a greater extent | reduced the invasion potential to a greater extent |  |  |  |  |  |  |  |  |  | 
2 | CC(=O)c1c(C)c2cnc(Nc3ccc(N4CCNCC4)cn3)nc2n(C2CCCC2)c1=O [PALBOCICLIB, palbociclib] | 14.5 µM |  |  | 8.2 µM | 11.1 µM |  |  | 14.5 µM | 6.7 µM |  |  |  |  |  |  |  | 
3 | CNC(=O)c1cc(Oc2ccc(NC(=O)Nc3ccc(Cl)c(C(F)(F)F)c3)c(F)c2)ccn1 [REGORAFENIB, regorafenib] | 4.7 µM | 1.9 µM | 4.7 µM | 3.5 µM |  | reduced the invasion potential to a greater extent | reduced the invasion potential to a greater extent |  |  | 3.94 µM |  |  |  |  |  |  | 
4 | CNC(=O)c1cc(Oc2ccc(NC(=O)Nc3ccc(Cl)c(C(F)(F)F)c3)cc2)ccn1 [SORAFENIB, sorafenib] | 12 µM |  |  | 8.8 µM |  | reduced the invasion potential to a greater extent | reduced the invasion potential to a greater extent |  |  | 6.48 µM | 12 µM | 6.7 µM | 12 µM | 21% | Significantly lower | modestly reduced | 
5 | CCN(CC)CCNC(=O)c1c(C)[nH]c(/C=C2\C(=O)Nc3ccc(F)cc32)c1C [SUNITINIB, sunitinib] |  |  |  | 8.2 µM |  |  |  |  | 17.2 µM | 25.4 µM | 30.4 µM |  |  |  |  |  | 30.5 µM

— patent US10758541B2, “Formulations of milciclib and therapeutic combinations of the same for use in the treatment of cancer” (Tiziana Life Sciences PLC, priority 2017, dated 2020)
